Experimental findings from patent US20240307283A1, “COMPOSITIONS AND METHODS FOR DECREASING PIGMENTATION” (The General Hospital Corporation, priority 2021, published 2024) are described below.

For experiment [1], the system named is murine Melan-A cells. Kind of experiment: Melanin content of Melan-A cells with NNT inhibitors. The conditions noted are these: 2 mM, FIG. 3A. In kind it is cell-based, mouse. As to the method: Murine Melan-A (Bennett et al., 1987) cells were obtained from the Wellcome Trust Functional Genomics Cell Bank. Melan-A cells were grown in RPMI 1640 supplemented with 10% FBS or FetalPlex (Gemini Bio-Products, #100-602), 100,000 U/L penicillin, 100 mg/L streptomycin sulphate, 100× Glutamax, and 200 nM TPA.
In vitro culture with NNT inhibitors: 2,3-Butanedione 97% (2,3 BD) (Sigma Aldrich, #B85307) (1 μM, 10 μM, 100 μM, 2 mM), N,N-Dicyclohexylcarbodiimide (DCC) (Sigma Aldrich, #D80002) (1 mM, 2 mM, 10 mM), and Palmitoyl coenzyme A lithium salt (Sigma Aldrich, #P9716) (10 μM, 2 mM) were reconstituted with DMSO (American Type Culture Collection, 4-X).
Melanin quantification: Equal numbers of cells were plated in 6-well plates. The cells were then harvested 72-96 hours post siRNA or NNT inhibitors compounds, as indicated in the legends, pelleted, washed in PBS and counted. 10^6 cells were used for measurement of protein concentration with the Pierce BCA protein assay (Thermo Fisher Scientific, #23225) and 10^6 cells were resuspended in 60 μl of 1 N NaOH solution and incubated at 60° C. for 2 h or until the melanin was completely dissolved. After cooling down to room temperature, samples were centrifuged at 500×g for 10 min and the supernatants were loaded onto a 96-well plate. The melanin content was determined by measuring the absorbance at 405 nm on an Envision plate reader, compared with a melanin standard (0 to 50 μg/ml; Sigma Aldrich, #M8631). Melanin content was expressed as micrograms per milligram of protein.

Experiment [2] has as its target T1, NNT (Homo sapiens, UniProt Q13423).
T1 sequence (Q13423 44-1086): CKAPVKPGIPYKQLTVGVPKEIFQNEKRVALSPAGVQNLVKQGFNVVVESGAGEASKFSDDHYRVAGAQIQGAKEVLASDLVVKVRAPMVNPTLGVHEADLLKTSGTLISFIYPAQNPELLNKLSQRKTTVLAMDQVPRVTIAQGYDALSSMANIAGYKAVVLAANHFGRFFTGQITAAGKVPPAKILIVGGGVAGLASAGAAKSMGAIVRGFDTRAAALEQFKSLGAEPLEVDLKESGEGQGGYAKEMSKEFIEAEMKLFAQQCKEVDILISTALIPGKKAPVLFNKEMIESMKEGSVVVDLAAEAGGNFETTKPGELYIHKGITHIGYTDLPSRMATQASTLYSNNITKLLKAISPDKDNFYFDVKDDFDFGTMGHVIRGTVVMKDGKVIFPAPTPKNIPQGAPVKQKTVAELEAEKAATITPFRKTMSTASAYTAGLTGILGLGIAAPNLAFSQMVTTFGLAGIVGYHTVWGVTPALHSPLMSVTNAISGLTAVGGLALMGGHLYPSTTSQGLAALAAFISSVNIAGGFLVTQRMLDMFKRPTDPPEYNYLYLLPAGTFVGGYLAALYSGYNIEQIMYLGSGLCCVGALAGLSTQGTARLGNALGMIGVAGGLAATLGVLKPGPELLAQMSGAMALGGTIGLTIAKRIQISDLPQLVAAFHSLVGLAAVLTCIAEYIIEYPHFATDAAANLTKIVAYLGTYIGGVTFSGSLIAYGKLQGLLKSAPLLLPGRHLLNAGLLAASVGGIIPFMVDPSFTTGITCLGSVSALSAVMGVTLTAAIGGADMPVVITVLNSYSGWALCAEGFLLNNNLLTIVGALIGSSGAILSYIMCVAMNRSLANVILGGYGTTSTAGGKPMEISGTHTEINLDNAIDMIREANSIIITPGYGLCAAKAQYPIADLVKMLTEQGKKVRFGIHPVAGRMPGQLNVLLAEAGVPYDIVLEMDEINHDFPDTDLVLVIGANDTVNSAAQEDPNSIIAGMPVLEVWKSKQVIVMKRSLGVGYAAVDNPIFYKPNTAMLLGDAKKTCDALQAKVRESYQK
Kind of experiment: GSH/GSSG ratio (indirect endpoint of NNT enzyme activity) in primary melanocytes. In kind it is cell-based. Further details: endogenous in cells; host or cells: primary human melanocytes (isolated from neonatal foreskins). The conditions noted are these: different doses, 24 hours. As to the method:
Glutathione measurements: Cell lysates were prepared from equal numbers of cells after 24 h of DCC or 2,3BD treatment, following the manufacturer's protocols. Seventy-two h post siRNA treatment or overexpression of NNT and their corresponding controls, glutathione levels were determined using the GSH/GSSG-Glo assay (Promega, #V6611) and luminescence was measured using an EnVision 2104 Multilabel Reader (PerkinElmer).

Experiment [3] relates to Zebrafish overexpressing NNT (NNT OE). Briefly: 2,3BD treatment of zebrafish overexpressing NNT. In kind it is in vivo. The conditions noted are these: 100 μM for 24 hours, FIG. 11C. As to the method: The human NNT gene was cloned into the MiniCoopR expression plasmid to allow melanocyte-specific overexpression of NNT (Ceol et al., 2011). The mcr:NNT plasmid was injected into Tubingen zebrafish embryos at the single cell stage and incorporated into the genome through the use of Tol2 transgenesis. Larvae were raised for 5 days and then at least three images were obtained and quantified using a Nikon SMZ18 Stereomicroscope. At least 5 zebrafish embryos of each group were analyzed after 5 days using the […] software enabling pixel-based color quantification. Wildtype Tübingen zebrafish were placed in a 24 well plate at 72 hours post-fertilization, with 10 larvae per well for a total twenty larvae per condition. Larvae were treated for 24 hours with either 2,3BD (1 μM, 10 μM, 100 μM, 1 mM; Sigma Aldrich, #B85307), DCC (1 μM, 10 μM, 50 μM, 100 μM; Sigma Aldrich, #D80002), or DMSO (1:500) in E3 embryo medium. At 4 days post fertilization, larvae were imaged using a Nikon SMZ18 Stereomicroscope. Melanocytes from at least 5 zebrafish embryos of each group for each experiment were analyzed using the FIJI software enabling pixel-based color quantification.

As to `CC(=O)C(C)=O` [2,3BD, 2,3-Butanedione], the melanin content entry in experiment [1] was “increased melanin content”. For the same compound, in experiment [2], the GSH/GSSG ratio result was “decreased GSH/GSSG ratios”. Further, in experiment [3], the “melanocytic pigmentation of NNT overexpressing fish” value is listed as “prevented the NNT OE-induced decrease in melanocytic pigmentation”.
